Reference: patent US20260374754A1, “N-((ISOQUINOLIN-6-YL)METHYL)-1H-PYRAZOLE-4-CARBOXAMIDE DERIVATIVES AS PLASMA KALLIKREIN INHIBITORS FOR THE TREATMENT OF HEREDITARY ANGIODEMA” (Takeda Pharmaceutical Company Limited, priority 2022, published 2026)
Counter-ions that a name gives are not always drawn.

What was measured:
[1] = target: human activated kallikrein enzyme (Homo sapiens, UniProt P03952); experiment: Inhibition of human activated plasma kallikrein, fluorogenic PFR-AMC substrate, 500 pM enzyme format; assay type: biochemical; conditions: 500 pM activated kallikrein; 300 μM PFR-AMC; 30 min preincubation; 10 min room temperature; pH 7.5; read-out: Primary Dose Response Assay: Average EC50
Method in brief: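 500 pM activated kallikrein preincubated 30 min at room temperature with inhibitors in pH 7.5 Tris/EDTA/NaCl buffer with PEG-400 and Triton X-100. Reaction started with 300 μM PFR-AMC, run 10 min at room temperature; AMC fluorescence read at ex 380/em 460 nm.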

plasma kallikrein = target: T1, plasma kallikrein (Homo sapiens, UniProt P03952); experiment: Neat Human Plasma Assay (Fluorogenic Peptide), contact pathway-activated (FXIIa) plasma; assay type: biochemical; conditions: human citrated plasma 78% final; 10 nM human FXIIa; PFR-AMC substrate; 5 minutes; room temperature
T1 construct: PFR-AMC substrate
Procedure: To analyze inhibition of plasma kallikrein in an ex vivo setting, the potency of compounds was measure in contact pathway-activated plasma assays. In a fluorogenic peptide substrate assay, test compounds dissolved in DMSO were added to sodium citrate collected human or rat plasma in a 96-well microplate. Alternatively, citrated plasma was collected from rats administered the compounds orally or by IV. 10 nM of human FXIIa (Enzyme Research Laboratories) diluted in PKa buffer (20 mM Tris-HCl, pH 7.5, 150 mM NaCl, 1 mM EDTA, 0.1% PEG-8000, and 0.1% Triton X-100) was added to the plasma, followed by the […] of the profluorescent, synthetic plasma kallikrein substrate PFR-AMC (also diluted in PKa buffer). Final plasma concentration in the reaction was 78%. Fluorescence was immediately monitored by excitation/emission wavelengths of 360 nm/480 nm respectively over a period of 5 minutes in a microplate reader. The resulting linear increase in fluorescence emission (reflecting PKa proteolysis of PFR-AMC substrate) was fit to extract a proteolytic rate (fluorescent units over time), and this rate was subsequently plotted against compound inhibitor concentration. Resulting plots were fit to a standard 4-parameter IC50/IC90 equation to determine min/max values, IC50/90, and slope. All experimental steps were performed at room temperature.

Sequence of human activated kallikrein enzyme (P03952 391-638 limits assumed): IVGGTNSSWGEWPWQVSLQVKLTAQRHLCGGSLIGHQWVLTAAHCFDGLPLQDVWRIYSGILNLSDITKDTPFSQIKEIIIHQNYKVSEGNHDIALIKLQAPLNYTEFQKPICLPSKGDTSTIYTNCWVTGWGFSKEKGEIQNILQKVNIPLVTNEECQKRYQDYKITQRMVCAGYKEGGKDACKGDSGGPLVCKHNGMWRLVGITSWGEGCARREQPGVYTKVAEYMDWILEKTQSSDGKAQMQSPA
Sequence of human activated kallikrein enzyme (P03952 20-390 partner limits assumed): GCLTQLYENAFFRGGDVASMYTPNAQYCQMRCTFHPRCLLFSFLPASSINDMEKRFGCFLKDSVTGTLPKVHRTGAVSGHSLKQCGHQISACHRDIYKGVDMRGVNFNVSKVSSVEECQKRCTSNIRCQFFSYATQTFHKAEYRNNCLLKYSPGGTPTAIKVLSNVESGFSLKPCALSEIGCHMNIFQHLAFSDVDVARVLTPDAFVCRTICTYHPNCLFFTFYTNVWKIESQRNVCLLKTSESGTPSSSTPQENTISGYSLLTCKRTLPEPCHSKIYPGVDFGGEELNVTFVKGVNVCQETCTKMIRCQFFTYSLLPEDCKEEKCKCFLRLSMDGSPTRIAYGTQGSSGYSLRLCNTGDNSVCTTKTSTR
T1 sequence (P03952 20-638): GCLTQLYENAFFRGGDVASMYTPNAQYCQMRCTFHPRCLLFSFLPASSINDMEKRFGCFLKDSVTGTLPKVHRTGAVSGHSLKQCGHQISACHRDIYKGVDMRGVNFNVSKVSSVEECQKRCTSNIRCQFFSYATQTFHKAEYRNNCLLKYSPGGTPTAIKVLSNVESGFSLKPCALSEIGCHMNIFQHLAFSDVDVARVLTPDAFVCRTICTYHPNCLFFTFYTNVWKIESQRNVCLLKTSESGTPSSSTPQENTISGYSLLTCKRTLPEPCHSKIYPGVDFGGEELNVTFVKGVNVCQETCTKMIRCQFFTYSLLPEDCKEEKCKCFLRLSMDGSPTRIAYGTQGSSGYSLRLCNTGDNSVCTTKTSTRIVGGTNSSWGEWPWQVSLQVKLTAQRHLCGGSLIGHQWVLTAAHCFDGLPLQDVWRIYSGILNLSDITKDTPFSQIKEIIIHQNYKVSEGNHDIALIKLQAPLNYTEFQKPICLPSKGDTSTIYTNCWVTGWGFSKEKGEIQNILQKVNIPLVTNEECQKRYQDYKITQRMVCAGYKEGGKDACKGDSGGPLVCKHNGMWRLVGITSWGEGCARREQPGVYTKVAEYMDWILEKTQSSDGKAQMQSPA

SMILES	EC50 [1] [nM]	IC90 (plasma kallikrein) [µM]
Cc1cc2c(N)nccc2c(C)c1CNc1cc(SCc2cn3cc(C4CC4)ccc3n2)ncn1 [Example 290, 6-(((6-(((6-cyclopropylimidazo[1,2-a]pyridin-2-yl)methyl)thio)pyrimidin-4-yl)amino)methyl)-5,7-dimethylisoquinolin-1-amine]	< 1	1 to 5
Cc1cc2c(N)nccc2c(C)c1CNc1cc(NCc2cn3cc(Cl)ccc3n2)ncn1 [Example 313, N^4-((1-amino-5,7-dimethylisoquinolin-6-yl)methyl)-N^6-((6-chloroimidazo[1,2-a]pyridin-2-yl)methyl)pyrimidine-4,6-diamine, formic acid salt]	< 1	> 5
Cc1c(CNc2cc(OCc3cn4cc(C5CC5)ccc4n3)ncn2)c(C2(C)CC2)cc2c(N)nccc12 [Example 390, 6-(((6-((6-cyclopropylimidazo[1,2-a]pyridin-2-yl)methoxy)pyrimidin-4-yl)amino)methyl)-5-methyl-7-(1-methylcyclopropyl)isoquinolin-1-amine]	< 1	> 5
Cc1cc2c(N)nccc2c(C)c1CNc1cc(NCc2ccc(Cn3ccccc3=O)cc2)cnn1 [Example 236, 1-(4-(((6-(((1-amino-5,7-dimethylisoquinolin-6-yl)methyl)amino)pyridazin-4-yl)amino)methyl)benzyl)pyridin-2(1H)-one]	< 1	≤ 1
Cc1cc2c(N)nccc2c(C)c1CNc1cc(OCc2ccc3ncc(C4CC4)cc3c2)ncn1 [Example 386, 6-(((6-((3-cyclopropylquinolin-6-yl)methoxy)pyrimidin-4-yl)amino)methyl)-5,7-dimethylisoquinolin-1-amine]	1 to 10	> 5
Cc1cc2c(N)nccc2c(C)c1CNc1cc(NCc2cc3cc(C4CC4)ccn3n2)ncn1 [Example 244]	< 1	1 to 5
Cc1cc2c(N)nccc2c(C)c1CNc1cc(OCc2cn3cc(C4CC4)cc(C4(O)COC4)c3n2)ncn1 [Example 250, 3-(2-(((6-(((1-amino-5,7-dimethylisoquinolin-6-yl)methyl)amino)pyrimidin-4-yl)oxy)methyl)-6-cyclopropylimidazo[1,2-a]pyridin-8-yl)oxetan-3-ol]	< 1	≤ 1
Cc1ccc2cc(Cn3ccc4nnc(NCc5c(C)cc6c(N)nccc6c5C)cc43)ccc2n1 [Example 515, 5,7-dimethyl-6-(((5-((2-methylquinolin-6-yl)methyl)-5H-pyrrolo[3,2-c]pyridazin-3-yl)amino)methyl)isoquinolin-1-amine]	< 1	1 to 5
Cc1cc2c(N)nccc2c(C)c1CNC(=O)c1ccnc(Cc2cn3cc(C4CC4)ccc3n2)c1 [Example 514, N-((1-amino-5,7-dimethylisoquinolin-6-yl)methyl)-2-((6-cyclopropylimidazo[1,2-a]pyridin-2-yl)methyl)isonicotinamide]	< 1	≤ 1
Cc1cc2c(N)nccc2c(C)c1CNc1cc(NCc2ccc(Cn3cccn3)cc2)ncn1 [Example 340, N^4-(4-((1H-pyrazol-1-yl)methyl)benzyl)-N^6-((1-amino-5,7-dimethylisoquinolin-6-yl)methyl)pyrimidine-4,6-diamine]	< 1	> 5
Cc1cc2c(N)nccc2c(C)c1CNc1ncncc1NCc1cn2cc(C3CC3)ccc2n1 [Example 288, N4-((1-amino-5,7-dimethylisoquinolin-6-yl)methyl)-N5-((6-cyclopropylimidazo[1,2-a]pyridin-2-yl)methyl)pyrimidine-4,5-diamine]	1 to 10	> 5
Cc1cc2c(N)nccc2c(C)c1CNc1cc(N2C[C@@H](O)C[C@@H]2c2cn3cc(C4CC4)ccc3n2)ncn1 [Example 513, (3S,5R)-1-(6-(((1-amino-5,7-dimethylisoquinolin-6-yl)methyl)amino)pyrimidin-4-yl)-5-(6-cyclopropylimidazo[1,2-a]pyridin-2-yl)pyrrolidin-3-ol]	< 1	≤ 1
Cc1cc2c(N)nccc2c(C)c1CNc1cc(OCc2nc3ccc(C4CC4)nn3n2)ncn1 [Example 391, 6-(((6-((6-cyclopropyl-[1,2,4]triazolo[1,5-b]pyridazin-2-yl)methoxy)pyrimidin-4-yl)amino)methyl)-5,7-dimethylisoquinolin-1-amine]	10 to 100	> 5
Cc1cc2c(N)nccc2c(C)c1CNc1cc(OCc2cc3cc(C4CC4)cc(CCC(=O)O)n3n2)ncn1 [Example 273, 3-(2-(((6-(((1-amino-5,7-dimethylisoquinolin-6-yl)methyl)amino)pyrimidin-4-yl)oxy)methyl)-5-cyclopropylpyrazolo[1,5-a]pyridin-7-yl)propanoic acid]	< 1	> 5
Cc1cc2c(N)nccc2c(C)c1CNc1cc(OCc2cc(C#N)c3ncc(Cl)cc3c2)ncn1 [Example 398, 6-(((6-(((1-amino-5,7-dimethylisoquinolin-6-yl)methyl)amino)pyrimidin-4-yl)oxy)methyl)-3-chloroquinoline-8-carbonitrile]	1 to 10	> 5
Cc1cc2c(N)nccc2c(C)c1CNc1cc(OCc2cn3cc(C4CC4)ccc3n2)ncn1 [Example 305, 6-(((6-((6-cyclopropylimidazo[1,2-a]pyridin-2-yl)methoxy)pyrimidin-4-yl)amino)methyl)-5,7-dimethylisoquinolin-1-amine]	< 1	> 5
Cc1cc2c(N)nccc2c(C)c1CNc1cc(OCc2cn3cc(C4CC4)cc(N4CCCC4=O)c3n2)ncn1 [Example 259, 1-(2-(((6-(((1-amino-5,7-dimethylisoquinolin-6-yl)methyl)amino)pyrimidin-4-yl)oxy)methyl)-6-cyclopropylimidazo[1,2-a]pyridin-8-yl)pyrrolidin-2-one]	< 1	≤ 1
Cc1cc2c(N)nccc2c(C)c1CNc1nccc2cn(Cc3cn4nc(C5CC5)ccc4n3)nc12 [Example 265, 6-(((2-((6-cyclopropylimidazo[1,2-b]pyridazin-2-yl)methyl)-2H-pyrazolo[3,4-c]pyridin-7-yl)amino)methyl)-5,7-dimethylisoquinolin-1-amine]	< 1	≤ 1
Cc1cc2c(N)nccc2c(C)c1CNC(=O)c1cnn(Cc2ccc3ncc(Cl)cc3c2)c1 [Example 89, N-((1-amino-5,7-dimethylisoquinolin-6-yl)methyl)-1-((3-chloroquinolin-6-yl)methyl)-1H-pyrazole-4-carboxamide]	< 1	≤ 1
Cc1cc2c(N)nccc2c(C)c1CNc1nccc2nc(Cc3cn4cc(C5CC5)ccc4n3)[nH]c12 [Example 500, 6-(((2-((6-cyclopropylimidazo[1,2-a]pyridin-2-yl)methyl)-3H-imidazo[4,5-c]pyridin-4-yl)amino)methyl)-5,7-dimethylisoquinolin-1-amine]	< 1	> 5
Cc1cc2c(N)nccc2c(C)c1CNc1cc(OC(C)c2ccc(Cn3cccn3)cc2)cnn1 (single isomer, unassigned) [Example 276, (R*)-6-(((5-(1-(4-((1H-pyrazol-1-yl)methyl)phenyl)ethoxy)pyridazin-3-yl)amino)methyl)-5,7-dimethylisoquinolin-1-amine]	< 1	≤ 1
